Data as given in patent US20160297828A1, “SPIROCYCLIC COMPOUNDS CONTAINING SPIRO[INDOLYL-3,1'-PYRROLO[3,4-C]PYRROLE] CORE AND SULPHUR-CONTAINING AMINO ACID RESIDUES” (priority 2013, published 2016).
Several values for one entry are separate records, joined by “and”; a condition that tells them apart may be missing. Equal entries are not always repeated.

Columns and labels:
[1] = tested on: neuron-specific enolase (NSE); test: Neuron-specific enolase (NSE) activity in rats with intracerebral hemorrhage (ELISA); format: in vivo; conditions: for NSE activity (dynamics of neurodestructive changes): acute cerebral hemorrhage, n = 7; for enzyme activity decreased in relation to the control pathology group: hemorrhage
Experimental: The derivative of 3,2′-spiro-pyrrolo-2-oxindole was investigated in conventionally effective dose of 10 mg/kg […] (iv)—dose that according to the results of our previous studies provided maximum antihypoxic activity of SI-86 compound. Reference drugs were injected intraperitoneally (ip). […] Autoblood was injected to rats with control pathology and 0.9% NaCI solution was administered as therapy calculated for 2 ml/kg ip.
Psevdooperated rats were exposed to all interventions (anesthesia, craniotomy) with the exception of autoblood administration that leveled traumatic impact of experimental conditions.
To determine neuron-specific enolase, the specific marker of cerebral ischemia,—for corresponding period (4 th and 21 st day of CVA) in rats, blood was sampled by sagittal sinus puncture (0.2-0.4 ml). NSE activity was measured by ELISA using a set NSE EIA KIT (DAI, USA) on the instrument of the company “Hipson” (Czech Republic).

[2] = tested on: rats with intracerebral hemorrhage; test: Conditioned response of passive avoidance (CRPA) in rats with intracerebral hemorrhage; format: in vivo; conditions: 21st day, n = 15; for Latent period for entrance into dark compartment, prior study: SI-86 10 mg/kg iv, mexydol 100, citocoline 250, actovegin 16, pyracetam 400 mg/kg ip
Experimental: (§1) Neuroprotective effect of 3,2′-spiro-pyrrolo-2-oxindole derivative (SI-86 compound) was studied on IUD model of moderate severity modeled under propofol anesthesia (60 mg/kg intraperitoneally (ip)) by autoblood administration into the brain internal capsule (stereotactic coordinates of the projection: H=7.0 mm, L=3.0 mm, A=1.5 mm from bregma) ([…]) (Method for reproduction of intracerebral hemorrhage in rats/O. K. Yarosh, S. V. Kyrychenko, S. P. Halimonchyk [et al.]//Circulation and hemostasis.-2005.-No. 1.-P. 77-81). The chosen model allows to reproduce clinical pattern of […] and is adequate for clinical study of potential neuroprotective agents.
(§2) As comparators the following drugs were used: mexydol (“Mexydol” UC Pharmasoft, Russia), 100 mg/kg; citicoline (“Somazina” Ferrer International, SA, Spain), 250 mg/kg; aktovegin (“Aktovegin”, Nycomed, Austria), 16 mg/kg pyracetam (“Pyracetam” Darnitsa, Ukraine), 400 mg/kg. According to the latest clinical guidelines regarding the treatment of patients with CVA approved by the Ministry of Health of Ukraine (Order No. 602 dated 3 Aug. 2012), all these drugs are allowed to be included into schemes for intensive patients therapy with CVA as neuroprotective agents. They were used at recommended doses for preclinical studies (McGrow C. P. Experimental Cerebral Infarction Effects of Pentobarbital in Mongolian Gerbils/C. P. McGrow//Arch. Neurol.-1977.-Vol. 34, No. 6.-P. 334-336). Experimental therapy of acute cerebral ischemia with SI-86 compound and comparator started 1 hour after IUD once a day for 21 days. The SI-86 derivative was investigated in conventionally effective dose of 10 mg/kg […] (iv)-dose that according to the results of our previous study provides maximum antihypoxic activity of SI-86 compound. Reference drugs were injected intraperitoneally (ip). Rats of control pathology group were injected by autoblood and as therapy 0.9% NaCI solution was administered calculated for 2 ml/kg […].
(§3) Evaluation of the ability of animals to learn and memorize of aversive stimulus was examined in the test of conditioned response of passive avoidance (CRPA). The technique is based on innate rat instinct to limited shadowy space. The study in rats was conducted in two-compartment unit consisted of two sections—light and dark. An animal was arranged into light compartment, fixing latency time for entering into the dark compartment, wherein rat received current irritation and ran in the light compartment. CRPA retention was tested every other day under latency time change of rat entering into the dark compartment. Also the number of animals was noted not fully entered the dark chamber. Cerebroprotective efficiency criteria of studied compounds were also animal death term (days) and their mortality rate (in %).

[3] = tested on: neuron-specific enolase (NSE); test: Neuron-specific enolase (NSE) activity in rats with bilateral carotid occlusion (ELISA); format: in vivo; conditions: BCO; for NSE activity (dynamics of neurodestructive changes): n = 7
Experimental: The derivative of 3,2′-spiro-pyrrolo-2-oxindole was studied in conventionally effective dose of 10 mg/kg […] (iv)—dose that by the results of our previous study provided maximum antihypoxic activity of the SI-86compound. Reference drugs were injected intraperitoneally (ip). […] BCO was made to rats of control pathology and as therapy 0.9% NaCI solution was administered calculated for 2 ml/kg ip.
Pseudooperative rats were exposed to all interventions (anesthesia, skin incision, dissection of vessels) except arteries ligation that leveled traumatic effect of experimental conditions.
To determine neurospecific enolase, specific marker of cerebral ischemia,—to the period (4 th and 21 st day of CVA) in rat's blood was sampled by sagittal sinus puncture (0.2-0.4 ml). NSE activity was measured by ELISA using a set NSE EIA KIT (DAI, USA) on the instrument of the company “Hipson” (Czech Republic).

[4] = tested on: rats with intracerebral hemorrhage; test: Neurological deficit (C. P. McGrow stroke-index scale) in rats with intracerebral hemorrhage; format: in vivo; conditions: n = 15
Experimental: as §1, §2
Neurological deficit in animals with acute CVA respectively in acute (4th day) and recovery (21 st day) periods was measured on C. P. McGrow stroke-index scale. The state severity was determined by amount of relevant points: to 3 points-mild, 3 to 7 points-average, above 7 points-severe degree. Pareses, paralyses of limbs, tremors, circus movement, ptoses, lateral positions, ability of rats to be maintained at the core of 15 cm diameter, rotating at the rate of 3 rpm were noted. The animals were tested daily by displaying the amount of points:
one-sided semi-ptosis—0.5 points; one-sided ptosis—1 point; tremor—0.5 points; circus movements—0.5 points; pareses of limbs (for each limb)—1 point; paralyses of limbs (for each limb)—2 points; lateral position—3 points; disability to maintain on rotating rod during 4 minutes—3 points.

11β-corticosterone = 11β-corticosterone level in venous blood of rats with bilateral carotid occlusion (ELISA); format: in vivo, Wistar rats; conditions: for dynamics in percents in relation to control pathology group / dynamics in percents in relation to the group of pseudo-operated animals / 11β-corticosterone level in venous blood: BCO
Experimental: The neuroprotective effect of 3,2′-spiro-pyrrolo-2-oxindole derivative (SI-86 compound) was studied in Wistar rats on a model of cerebrovascular accident (CVA) of ischemic type in archencephalic pool forming bilateral carotid occlusion (BCO) by carotid artery ligation. The ligations for common carotid arteries was imposed under propofol anesthesia at a dose of 60 mg/kg intraperitoneally (ip), using surgical access to the front of the neck cutting through its white line. The chosen model allows to reproduce the clinical pattern of ischemic stroke and is adequate for clinical study of potential neuroprotective substances (Drug discovery and Evaluation: pharmacological assays/H. Gerhard Vogel (ed.).-2nd ed. 1453p.).
The derivative of 3,2′-spiro-pyrrolo-2-oxindole was investigated in conventionally effective dose of 10 mg/kg […] (iv)—dose which is provided maximum antihypoxic activity of SI-86 compound by the results of our previous study. The reference drugs were injected intraperitoneally (ip). BCO was applied to the rats of control pathology and 0.9% NaCI solution was administered as therapy calculated for 2 ml/kg ip.
Pseudo-operated rats were exposed to all interventions (anesthesia, skin incision, dissection of vessels) except arteries ligation that leveled traumatic impact of experimental conditions.
To determine a corticosterone level (species-specific cortisol analogue in rats, which is also a substrate for 11β-HSD1) in the corresponding period (4 th and 21 st CVA day) in rat by sagittal sinus puncture, blood was sampled (0.2-0.4 ml). The cortisol level was measured by ELISA using a CORTICOSTERONEE KIT set (Germany) on the instrument of the company “Hipson” (Czech Republic).

[5] = tested on: rats with intracerebral hemorrhage; test: Lethality of rats with intracerebral hemorrhage of average severity; format: in vivo
Experimental: The chosen model allows to reproduce clinical pattern of […] and is adequate for clinical study of potential neuroprotective agents.
As comparators the following drugs were used: mexydol (“Mexydol” UC Pharmasoft, Russia), 100 mg/kg; citicoline (“Somazina” Ferrer International, SA, Spain), 250 mg/kg; aktovegin (“Aktovegin”, Nycomed, Austria), 16 mg/kg pyracetam (“Pyracetam” Darnitsa, Ukraine), 400 mg/kg. According to the latest clinical guidelines regarding the treatment of patients with CVA approved by the Ministry of Health of Ukraine (Order No. 602 dated 3 Aug. 2012), all these drugs are allowed to be included into schemes for intensive patients therapy with CVA as neuroprotective agents. They were used at recommended doses for preclinical studies (McGrow C. P. Experimental Cerebral Infarction Effects of Pentobarbital in Mongolian Gerbils/C. P. McGrow//Arch. Neurol.-1977.-Vol. 34, No. 6.-P. 334-336). Experimental therapy of acute cerebral ischemia with SI-86 compound and comparator started 1 hour after IUD once a day for 21 days. […] Reference drugs were injected intraperitoneally (ip). Rats of control pathology group were injected by autoblood and as therapy 0.9% NaCI solution was administered calculated for 2 ml/kg iv.
Pseudo-operated rats were exposed to all interventions (anesthesia, craniotomy) excluding autoblood administration that leveled traumatic impact of experimental conditions.
as §3
Quantitative data were processed using statistical StatPlus 2009 processing. The statistical significance of differences was assessed by Fisher's angular transformation (lethality outcome), also parametric t Student criterion were used in case of normal distribution of variation series, nonparametric W White criterion—in its absence.

[6] = day 4, SI-86 10 mg/kg iv, citocoline 250 mg/kg ip
[7] = day 4, SI-86 10 mg/kg iv, mexydol 100, citocoline 250, actovegin 16, pyracetam 400 mg/kg ip
[8] = 12 h, SI-86 10 mg/kg iv, mexydol 100, citocoline 250, actovegin 16, pyracetam 400 mg/kg

C[N+](C)(C)CCOP(=O)(O)OP(=O)([O-])OC[C@H]1O[C@@H](n2ccc(N)nc2=O)[C@H](O)[C@@H]1O [citocoline, reference compound]
NSE activity (dynamics of neurodestructive changes) [1, 6]: 1.292 ± 0.069 | NSE activity (dynamics of neurodestructive changes) ([1]; day 21, same doses): 0.309 ± 0.05 | enzyme activity decreased in relation to the control pathology group ([1]; 96 hours): 2.2 times | enzyme activity decreased in relation to the control pathology group ([1]; 21 days): 3.1 times | Latent period for entrance into dark compartment, prior study [2]: 12.50 ± 0.75°*^# s | enzyme activity decreased in relation to the control pathology group ([3]; 96 hours): 1.27 times | enzyme activity decreased in relation to the control pathology group ([3]; 21 days): 2.03 times | NSE activity (dynamics of neurodestructive changes) [3, 6]: 0.972 ± 0.010 | NSE activity (dynamics of neurodestructive changes) ([3]; day 21, same doses): 0.385 ± 0.010 | neurological deficit, average point under C. P. McGrow scale [4, 7]: 5.0 points and 5.00 ± 0.18°*^#$ points | neurological deficit, average point under C. P. McGrow scale ([4]; day 21, same doses): 3.1 points and 3.10 ± 0.15°*^#&$ points | dynamics in percents in relation to control pathology group (11β-corticosterone; day 4): [−41.7%] | dynamics in percents in relation to the group of pseudo-operated animals (11β-corticosterone; day 4): (+126.9%) | 11β-corticosterone level in venous blood (11β-corticosterone; [6]): 272.79 ± 1.95°* ng/ml | dynamics in percents in relation to control pathology group (11β-corticosterone; day 21): [−30.2%] | dynamics in percents in relation to the group of pseudo-operated animals (11β-corticosterone; day 21): (+152.7%) | 11β-corticosterone level in venous blood (11β-corticosterone; day 21, same doses): 235.52 ± 7.82°*^• ng/ml | corticosterone concentration in sagittal sinus blood decreased in relation to the control pathology group (11β-corticosterone; after 96 hours): 41.7% | corticosterone concentration in sagittal sinus blood decreased in relation to the control pathology group (11β-corticosterone; after 21 days): 30.2%

NC(=O)CN1CCCC1=O [pyracetam]
Latent period for entrance into dark compartment, prior study [2]: 15.90 ± 0.51°* s | Latent period for entrance into dark compartment, 24 hours after study ([2]; same doses): 71.10 ± 2.21 s | Lethality, % [5, 8]: 4.9% | Lethality, abs. [5, 8]: 2 | Lethality, % ([5]; 24 h, same doses): 14.6% | Lethality, abs. ([5]; 24 h, same doses): 6 | Lethality, % ([5]; 48 h, same doses): 22% | Lethality, abs. ([5]; 48 h, same doses): 9 | Lethality, % ([5]; 72 h, same doses): 24.4% | Lethality, abs. ([5]; 72 h, same doses): 10 | Lethality, % ([5]; 96 h, same doses): 27.5% | Lethality, abs. ([5]; 96 h, same doses): 11 | reduction of mortality in rats at the end of the observation period relative to control ([5]; within 4 days of therapy, same doses): no significant impact | neurological deficit, average point under C. P. McGrow scale [4, 7]: 6.90 ± 0.39° points | neurological deficit, average point under C. P. McGrow scale ([4]; day 21, same doses): 4.1 points and 4.10 ± 0.15°* points
